Measured values taken from patent publication US20090227533A1, “miR-34 Regulated Genes and Pathways as Targets for Therapeutic Intervention” (priority 2007, published 2009).

Experiments:
H460 lung cancer cells = assay: Alamar Blue proliferation assay with pair-wise miRNA combinations; format: cell-based, human
Excerpt: miRNAs function in multiple pathways controlling multiple cellular processes. Cancer cells frequently show aberrations in several different pathways, which determine their oncogenic properties. […] The inventors assessed the efficacy of pair-wise miRNA combinations, administering hsa-miR-34a concurrently with either hsa-miR-124a, hsa-miR-126, hsa-miR-147, hsa-let-7b, hsa-let-7c or hsa-let-7g (Pre-miR™ miRNA, Ambion cat. no. AM17100). H460 lung cancer cells were transiently reverse-transfected in triplicate with each miRNA at a final concentration of 300 pM, resulting in 600 pM of total oligonucleotide. For negative controls, 600 pM of Pre-miR™ microRNA Precursor Molecule-Negative Control #2 (Ambion cat. no. AM17111) were used. To correlate the effect of various combinations with the effect of the sole miRNA, each miRNA at 300 pM was also combined with 300 pM negative control miRNA. Reverse transfection was carried out using the following parameters: 7,000 cells per 96 well, 0.15 μl Lipofectamine™ 2000 (Invitrogen) in 20 μl OptiMEM (Invitrogen), 100 μl total transfection volume. […] Cells were harvested 72 hours after transfection and subjected to Alamar Blue assays (Invitrogen). Percent proliferation values from the Alamar Blue assays were normalized to those obtained from cells treated with 600 pM negative control miRNA. Data are expressed as % proliferation relative to negative control miRNA-treated cells (Table 8, FIG. 3).
Additive activity of pair-wise combinations (e.g., hsa-miR-34a plus hsa-miR-147) is defined as an activity that is greater than the sole activity of each miRNA (e.g., the activity of hsa-miR-34a plus hsa-miR-147 is greater than that observed for hsa-miR-34a plus NC and the activity of hsa-miR-34a plus hsa-miR-147 is greater than that observed for hsa-miR-147 plus NC). Synergistic activity of pair-wise combinations is defined as an activity that is greater than the sum of the sole activity of each miRNA (e.g., the activity of hsa-miR-34a plus hsa-let-7g is greater than that observed for the sum of the activity of hsa-miR-34a plus NC and the activity of hsa-let-7g plus NC). […] The combinatorial use of miRNAs represents a potentially useful therapy for cancer and other diseases.

RWPE2 cells = assay: Alamar Blue proliferation assay, prostate cancer cells; format: cell-based, human; details: 30 nM, normalized to negative control miRNA (100% proliferation)
Excerpt: (§1) The inventors assessed the therapeutic effect of hsa-miR-34a for prostate cancer by using four individual human prostate cancer cell lines. To measure cellular proliferation of prostate cancer cells, the following prostate cancer cell lines were used: PPC-1, derived from a bone metastasis; Du145, derived from a brain metastasis; RWPE2, derived from prostate cells immortalized by human papillomavirus 18 and transformed by the K-RAS oncogene; and LNCaP, derived from a lymph node metastasis (Bello et al., 1997; Pretlow et al., 1993; Stone et al., 1978; Brothman et al., 1991; Horoszewicz et al., 1980). PPC-1 and Du145 cells lack expression of the prostate-specific antigen (PSA) and are independent of androgen receptor (AR) signaling. In contrast, RWPE2 and LNCaP cells test positive for PSA and AR. Cells were transfected with synthetic hsa-miR-34a (Pre-miR™-hsa-miR-34a, Ambion cat. no. AM17100) or negative control miRNA (NC; Pre-miR™ microRNA Precursor Molecule-Negative Control #2; Ambion cat. no. AM17111) in a 96-well format using a lipid-based transfection reagent. Lipid-based reverse transfections were carried out in triplicate according to a published protocol (Ovcharenko et al., 2005) and the following parameters: cells (6,000-7,000 per 96 well), 0.1-0.2 μl Lipofectamine™ 2000 (cat. no. 11668-019, Invitrogen Corp., Carlsbad, Calif., USA) in 20 μl OptiMEM (Invitrogen), 30 nM final concentration of miRNA in 100 μl. Proliferation was assessed 4-7 days post-transfection using Alamar Blue™ (Invitrogen) following the manufacturer's instructions. As a control for inhibition of cellular proliferation, siRNA against the motor protein kinesin 11, also known as Eg5, was used. Eg5 is essential for cellular survival of most eukaryotic cells and a lack thereof leads to reduced cell proliferation and cell death (Weil et al., 2002). siEg5 was used in lipid-based transfection following the same experimental parameters that apply to miRNA. Fluorescent light units (FLU) were measured after 3 hours, normalized to the control, and plotted as percent change in proliferation. Percent proliferation of hsa-miR-34a treated cells relative to cells treated with negative control miRNA (100%) is shown in Table 9 and in FIG. 5.

PPC-1 cells = assay: as above; format: cell-based, human; details: 30 nM, normalized to negative control miRNA (100% proliferation)
Excerpt: as §1

LNCaP cells = assay: as above; format: cell-based, human; details: 30 nM, normalized to negative control miRNA (100% proliferation)
Excerpt: as §1

Du145 cells = assay: as above; format: cell-based, human; details: 30 nM, normalized to negative control miRNA (100% proliferation)
Excerpt: as §1

normal human T cells = details: cited from earlier work

## hsa-miR-34a: synthetic miRNA; mature sequence UGGCAGUGUCUUAGCUGGUUGUU (MIMAT0000255; SEQ ID NO:1) (synthetic miRNA, chemistry not given here)
H460 lung cancer cells; 300 pM hsa-miR-34a plus 300 pM negative control miRNA
  reduction of proliferation: 0.42%
H460 lung cancer cells; each miRNA 300 pM (600 pM total), 72 h, normalized to 600 pM negative control miRNA
  % proliferation: 99.58%
RWPE2 cells
  % proliferation: 95.96%
PPC-1 cells
  % proliferation: 24.65%
LNCaP cells
  % proliferation: 49.40%
Du145 cells
  % proliferation: 81.26%
Normal human T cells
  proliferation: no anti-proliferative effect
